Measured values as given in ChEMBL document CHEMBL1149607, “Synthesis, characterization and antimicrobial activity of new aliphatic sulfonamide” (2007).
Values after ≈ are worked out from the molar mass of the structure shown.

Experiments:
Type in all cases: functional
Staphylococcus aureus [1] = assay: Antibacterial activity against Staphylococcus aureus ATCC 25923 at 10U by disc diffusion method
Bacillus cereus [2] = assay: Antibacterial activity against Bacillus cereus ATCC […] after 24 hrs by disc diffusion method
Listeria monocytogenes [3] = assay: Antibacterial activity against Listeria monocytogenes Li6 isolate after 24 hrs by disc diffusion method
Staphylococcus aureus [4] = assay: Antibacterial activity against Staphylococcus aureus ATCC 25923 by microdilution broth method
Bacillus cereus [5] = assay: Antibacterial activity against Bacillus cereus ATCC […] by microdilution broth method
Listeria monocytogenes [6] = assay: Antibacterial activity against Listeria monocytogenes Li6 isolate by microdilution broth method
Escherichia coli [7] = assay: Antibacterial activity against Escherichia coli ATCC 11230 by microdilution broth method
Candida albicans [8] = assay: Antifungal activity against Candida albicans by microdilution broth method
Escherichia coli [9] = assay: Antibacterial activity against Escherichia coli ATCC 11230 after 24 hrs by disc diffusion method
Candida albicans [10] = assay: Antifungal activity against Candida albicans after 48 hrs by disc diffusion method
Staphylococcus aureus [11] = assay: Antibacterial activity against Staphylococcus aureus ATCC 25923 after 24 hrs by disc diffusion method
Escherichia coli [12] = assay: Antibacterial activity against Escherichia coli ATCC 11230 at 10 ug after 24 hrs by disc diffusion method; settings: ATCC 11230, 24 h, read-out: IZ
Bacillus cereus [13] = assay: Antibacterial activity against Bacillus cereus ATCC […] at 1 ug after 24 hrs by disc diffusion method; settings: read-out: IZ
Candida albicans [14] = assay: Antifungal activity against Candida albicans at 50 ug after 48 hrs by disc diffusion method; settings: read-out: IZ

| MIC (Staphylococcus aureus [4]) | MIC (Bacillus cereus [5]) | MIC (Listeria monocytogenes [6]) | MIC (Escherichia coli [7]) | MIC (Candida albicans [8]) | SMILES | inhibition zone (IZ) (Staphylococcus aureus [1]) | inhibition zone (IZ) (Bacillus cereus [2]) | inhibition zone (IZ) (Listeria monocytogenes [3]) | inhibition zone (IZ) (Escherichia coli [9]) | inhibition zone (IZ) (Candida albicans [10]) | inhibition zone (IZ) (Staphylococcus aureus [11]) | zone of inhibition at 10 µg/disc (Escherichia coli [12]) | zone of inhibition at 1 µg/disc (Bacillus cereus [13]) | zone of inhibition at 50 µg/disc (Candida albicans [14]) |
| --- | --- | --- | --- | --- | --- | --- | --- | --- | --- | --- | --- | --- | --- | --- |
| 216 µg/mL (≈ 719 µM) | 243 µg/mL (≈ 809 µM) | 216 µg/mL (≈ 719 µM) | 243 µg/mL (≈ 809 µM) | 324 µg/mL (≈ 1080 µM) | CCCCS(=O)(=O)NCCNS(=O)(=O)CCCC |  |  |  | 10 mm |  |  |  |  |  |
| 648 µg/mL (≈ 1970 µM) | 463 µg/mL (≈ 1410 µM) | 648 µg/mL (≈ 1970 µM) | 555 µg/mL (≈ 1690 µM) | 555 µg/mL (≈ 1690 µM) | CCCCS(=O)(=O)NCCCCNS(=O)(=O)CCCC |  |  |  | 11 mm | 12 mm | 10 mm |  |  |  |
| 336 µg/mL (≈ 1120 µM) | 336 µg/mL (≈ 1120 µM) | 228 µg/mL (≈ 759 µM) | 240 µg/mL (≈ 799 µM) | 336 µg/mL (≈ 1120 µM) | CCCS(=O)(=O)NCCCCNS(=O)(=O)CCC |  |  |  | 12 mm |  |  |  |  |  |
| 432 µg/mL (≈ 1260 µM) | 540 µg/mL (≈ 1580 µM) | 432 µg/mL (≈ 1260 µM) | 486 µg/mL (≈ 1420 µM) | 540 µg/mL (≈ 1580 µM) | CCCCS(=O)(=O)NCCCCCNS(=O)(=O)CCCC |  |  |  | 12 mm | 13 mm |  |  |  |  |
| 300 µg/mL (≈ 1100 µM) | 250 µg/mL (≈ 918 µM) | 300 µg/mL (≈ 1100 µM) | 150 µg/mL (≈ 551 µM) | 300 µg/mL (≈ 1100 µM) | CCCS(=O)(=O)NCCNS(=O)(=O)CCC |  |  | 16 mm | 11 mm |  | 12 mm |  |  |  |

The remaining lines, values behind:

| SMILES | MIC (Staphylococcus aureus [4]) | MIC (Bacillus cereus [5]) | MIC (Listeria monocytogenes [6]) | MIC (Escherichia coli [7]) | MIC (Candida albicans [8]) | inhibition zone (IZ) (Staphylococcus aureus [1]) | inhibition zone (IZ) (Bacillus cereus [2]) | inhibition zone (IZ) (Listeria monocytogenes [3]) | inhibition zone (IZ) (Escherichia coli [9]) | inhibition zone (IZ) (Candida albicans [10]) | inhibition zone (IZ) (Staphylococcus aureus [11]) | zone of inhibition at 10 µg/disc (Escherichia coli [12]) | zone of inhibition at 1 µg/disc (Bacillus cereus [13]) | zone of inhibition at 50 µg/disc (Candida albicans [14]) |
| --- | --- | --- | --- | --- | --- | --- | --- | --- | --- | --- | --- | --- | --- | --- |
| CC1(C)S[C@@H]2[C@H](NC(=O)Cc3ccccc3)C(=O)N2[C@H]1C(=O)O [PENICILLIN G] |  |  |  |  |  | 19 mm |  |  |  |  |  |  |  |  |
| CCCCS(=O)(=O)NCCCNS(=O)(=O)CCCC | 270 µg/mL (≈ 859 µM) | 180 µg/mL (≈ 572 µM) | 225 µg/mL (≈ 715 µM) | 225 µg/mL (≈ 715 µM) | 315 µg/mL (≈ 1000 µM) |  | 10 mm | 11 mm | 10 mm | 10 mm |  |  |  |  |
| CC1(C)S[C@@H]2[C@H](NC(=O)[C@H](N)c3ccccc3)C(=O)N2[C@H]1C(=O)O [AMPICILLIN] |  |  |  |  |  |  |  |  |  |  |  | 9 mm |  |  |
| Cc1onc(-c2ccccc2)c1C(=O)N[C@@H]1C(=O)N2[C@@H]1SC(C)(C)[C@@H]2C(=O)O [OXACILLIN] |  |  |  |  |  |  |  |  |  |  |  |  | 9 mm |  |
| CC(=O)N1CCN(c2ccc(OC[C@H]3CO[C@](Cn4ccnc4)(c4ccc(Cl)cc4Cl)O3)cc2)CC1 [KETOCONAZOLE] |  |  |  |  |  |  |  |  |  |  |  |  |  | 16 mm |
| CCCS(=O)(=O)NCCCNS(=O)(=O)CCC | 456 µg/mL (≈ 1590 µM) | 380 µg/mL (≈ 1330 µM) | 532 µg/mL (≈ 1860 µM) | 228 µg/mL (≈ 796 µM) | 532 µg/mL (≈ 1860 µM) |  |  | 11 mm | 12 mm | 12 mm | 11 mm |  |  |  |
